Here are results for three molecules from patent US9724383B2, “Stabilized trimeric HIV-1 GP41 fusion inhibitor polypeptides comprising the N-terminal heptad repeat (NHR) and foldon (FD) trimerization motif” (New York Blood Center, Inc., priority 2009, dated 2017).

For data set [1], the system named is HIV-1IIIB (subtype B, X4). As for the experimental part: (§1) In brief, 1×10^4 MT-2 cells were infected with HIV-1IIIB in 200 μl RPMI 1640 medium containing 10% FBS in the presence or absence of testing compounds at graded concentrations overnight. Then the culture supernatants were removed and fresh media containing no testing compounds were added. On the fourth day post-infection, 100 μl of culture supernatants were collected from each well, mixed with equal volumes of 5% Triton X-100 and assayed for p24 antigen, which was quantitated by ELISA. Briefly, wells of polystyrene plates (Immulon 1B, Dynex Technology, Chantilly, Va.) were coated with HIV immunoglobulin (HIVIG), which was prepared from plasma of HIV-seropositive donors with high neutralizing titers against HIV-1IIIB, in 0.085 M carbonate-bicarbonate buffer (pH 9.6) at 4° C. overnight, followed by washes with washing buffer (0.01M PBS containing 0.05% Tween-20) and blocking with PBS containing 1% dry fat-free milk (Bio-Rad Inc., Hercules, Calif.). Virus lysates were added to the wells and incubated at 37° C. for 1 h. […] Reactions were terminated by addition of 1N H2SO4. Absorbance at 450 nm was recorded in an ELISA reader (Ultra 386, TECAN, Research Triangle Park, NC). Recombinant protein p24 purchased from US Biological (Swampscott, Mass.) was included for establishing standard dose response curves. […] The percentage of inhibition of p24 production was calculated as previously described.

The next data set addresses CHR-peptide C34 (Human immunodeficiency virus type 1 group M subtype B, UniProt P04578). Type of data set: binding, HIV-1. The conditions noted are these: CD spectroscopy. The protocol: (§2) All the N-peptides were diluted in ddH2O (pH 7.0) and all the C-peptides or the mixture of the N- and C-peptides were diluted in 50 mM sodium phosphate and 150 mM NaCl (PBS, pH 7.2) to a final concentration of 10 μM. The individual peptides and their mixtures were incubated in a 37° C. water bath for 0.5 h before testing. […] The α-helicity was calculated from the CD signal by dividing the mean residue ellipticity at 222 nm by the value expected for 100% helix formation (i.e., 33,000° cm^2 dmol^−1) according to previous studies. Thermal denaturation of the samples was monitored at 222 nm by applying a temperature gradient from 20° C. to 98° C. with a 2-degree interval, an equilibration time of 1.5 min, and an averaging time of 60 s. The midpoint of the thermal unfolding transition (Tm) values was calculated using Jasco software utilities as described previously.

Another data set has as its system HIV-1IIIB. Put plainly: Proteinase K digestion, remaining antiviral activity against HIV-1IIIB infection. The conditions noted are these: 1 μU/ml Proteinase K in PBS, 37° C., 3 hrs. As for the experimental part:
as §1

A short description of data set [2]: SDS-PAGE analysis of trimer stability. The conditions noted are these: 2% SDS sample buffer, room temperature or boiled 5 min. Type of data set: physicochemical. As for the experimental part:
Purified N36Fd and N28Fd were analyzed by SDS-PAGE. […] The sample was boiled for 5 min or kept at room temperature (RT) before loading onto a 10-20% Tricine-Glycine gel (Invitrogen). The electrophoresis was conducted in SDS-PAGE running buffer with 125V constant voltage at 4° C. The gels were stained with SimplyBlue SafeStain (Invitrogen).

For data set [3], the system named is HIV-1NL4-3(36G) V38E/N42S. The conditions noted are these: T20-resistant. The protocol: (§3) In brief, 1×10^4 MT-2 cells were infected with HIV-1IIIB in 200 μl RPMI 1640 medium containing 10% FBS in the presence or absence of testing compounds at graded concentrations overnight. Then the culture supernatants were removed and fresh media containing no testing compounds were added. On the fourth day post-infection, 100 μl of culture supernatants were collected from each well, mixed with equal volumes of 5% Triton X-100 and assayed for p24 antigen, which was quantitated by ELISA. Briefly, wells of polystyrene plates (Immulon 1B, Dynex Technology, Chantilly, Va.) were coated with HIV immunoglobulin (HIVIG), which was prepared from plasma of HIV-seropositive donors with high neutralizing titers against HIV-1IIIB, in 0.085 M carbonate-bicarbonate buffer (pH 9.6) at 4° C. overnight, followed by washes with washing buffer (0.01M PBS containing 0.05% Tween-20) and blocking with PBS containing 1% dry fat-free milk (Bio-Rad Inc., Hercules, Calif.). Virus lysates were added to the wells and incubated at 37° C. for 1 h. […] Reactions were terminated by addition of 1N H2SO4. Absorbance at 450 nm was recorded in an ELISA reader (Ultra 386, TECAN, Research Triangle Park, NC). Recombinant protein p24 purchased from US Biological (Swampscott, Mass.) was included for establishing standard dose response curves. Each sample was tested in triplicate. The percentage of inhibition of p24 production was calculated as previously described.
(§4) Mutations in the NHR region of HIV-1 virus NL4-3 cause genetic resistance to T20.

Data set [4] relates to HIV-1NL4-3(36G) N42T/N43K. The conditions noted are these: T20-resistant. As for the experimental part: as §3, §4
For data set [5], the system named is HIV-1NL4-3(36G) V38A/N42D. The conditions noted are these: T20-resistant. As for the experimental part: as §3, §4
The subject of a further data set is HIV-1NL4-3(36G) N42S. The conditions noted are these: T20-sensitive. The protocol: as §3, §4
In data set [6] the test system is HIV-1IIIB-mediated cell-cell fusion. As for the experimental part:
Briefly, H9/HIV-1IIIB cells were pre-labeled with a fluorescent dye, Calcein AM (Molecular Probes, Inc., Eugene, Oreg.), and incubated with a testing compound at a graded concentration at 37° C. for 30 min in a 96-well cell culture plate. Then the CD4^+ MT-2 cells were added to the H9/HIV-1IIIB cells at a ratio of 10:1, followed by incubation at 37° C. for 2 hrs. The fused and unfused Calcein-labeled HIV-1-infected cells were counted under an inverted fluorescence microscope (Zeiss, Germany) with an eyepiece micrometer disc. The percent inhibition of cell fusion by a compound and the EC50 and EC90 values were calculated using the software CalcuSyn.

A short description of data set [7]: CD spectroscopy of secondary structure (α-helicity) of the individual peptides. Type of data set: physicochemical. The conditions noted are these: CD at 222 nm, 10 μM, ddH2O pH 7.0; spectrum of free Fd subtracted. The protocol:
as §2

In a further data set the target is T1, Proteinase K (Parengyodontium album, UniProt P06873).
T1 construct: purchased Sigma
T1 sequence (P06873 106-384): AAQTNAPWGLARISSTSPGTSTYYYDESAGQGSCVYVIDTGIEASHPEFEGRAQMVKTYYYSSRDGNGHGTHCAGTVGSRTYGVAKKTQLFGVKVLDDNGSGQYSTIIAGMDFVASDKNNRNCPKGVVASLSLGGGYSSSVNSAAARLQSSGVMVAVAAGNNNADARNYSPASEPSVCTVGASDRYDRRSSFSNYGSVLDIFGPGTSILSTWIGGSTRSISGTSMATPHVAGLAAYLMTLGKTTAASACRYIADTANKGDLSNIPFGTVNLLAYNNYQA
Put plainly: Proteinase K digestion, residual peptide by direct ELISA. Type of data set: in vitro ADME. The conditions noted are these: 1 μU/ml Proteinase K in PBS, 37° C. The source says:
T20 was used as a control. […] Samples were collected at different times and centrifuged immediately.
Background: ELISA stands for enzyme-linked immunosorbent assay.

The test system of data set [8] is HIV-1 93IN101 (subtype C, R5). Type of data set: cell-based. As for the experimental part: For inhibition of infection by the primary HIV-1 isolate 93IN101 (subtype C, R5), the peripheral blood mononuclear cells (PBMCs) were isolated from the blood of healthy donors using a standard density gradient (Histopaque-1077, Sigma) centrifugation. After incubation at 37° C. for 2 h, the nonadherent cells were collected and resuspended at 5×10^5/ml in RPMI medium 1640 containing 10% FBS, 5 μg of phytohemagglutinin (PHA)/ml, and 100 U of interleukin-2/ml, followed by incubation at 37° C. for 3 days. The PHA-stimulated cells were infected with the primary HIV-1 isolate at a multiplicity of infection (MOI) of 0.01 in the absence or presence of N-Fd peptides at graded concentrations. The supernatants were collected on the 7th day post-infection and tested for p24 antigen by ELISA.

In data set [9] the test system is HIV-1 Bal (subtype B, R5). Type of data set: cell-based. As for the experimental part:
The cells were harvested and lysed on the fourth day post-infection with 50p1 of lysing reagent. The luciferase activity was analyzed using a luciferase kit (Promega, Madison, Wis.) and a luminometer (Ultra 386) according to the manufacturer's instructions. The percent inhibition of luciferase activity was calculated.

The test system of a further data set is HIV-1-mediated fusion. The conditions noted are these: background statement; cited from earlier work.

Entries after “also recorded” stand apart in the source; their conditions may differ. Read-outs that look alike come from different tables or passages of the source. Peptide text beside a SMILES is read from it. A value given as a limit tells only on which side of the number the result lay.

Sequence of CHR-peptide C34 (P04578 628-661): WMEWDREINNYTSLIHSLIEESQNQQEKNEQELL

For orientation: IC50 means the midpoint of a concentration-inhibition curve. Consider `CC[C@H](C)[C@H](N)C(=O)N[C@@H](CCC(=O)O)C(=O)N[C@@H](C)C(=O)N[C@@H](CCC(N)=O)C(=O)N[C@@H](CCC(N)=O)C(=O)N[C@@H](Cc1c[nH]cn1)C(=O)N[C@@H](CC(C)C)C(=O)N[C@@H](CC(C)C)C(=O)N[C@@H](CCC(N)=O)C(=O)N[C@@H](CC(C)C)C(=O)N[C@H](C(=O)N[C@H](C(=O)N[C@@H](Cc1c[nH]c2ccccc12)C(=O)NCC(=O)N[C@H](C(=O)N[C@@H](CCCCN)C(=O)N[C@@H](CCC(N)=O)C(=O)N[C@@H](CC(C)C)C(=O)N[C@@H](CCC(N)=O)C(=O)N[C@@H](C)C(=O)N[C@@H](CCCNC(=N)N)C(=O)N[C@H](C(=O)N[C@@H](CC(C)C)C(=O)N[C@@H](C)C(=O)N[C@H](C(=O)N[C@@H](CCC(=O)O)C(=O)N[C@@H](CCCNC(=N)N)C(=O)N[C@@H](Cc1ccc(O)cc1)C(=O)O)C(C)C)[C@@H](C)CC)[C@@H](C)CC)C(C)C)[C@@H](C)O` [N28] (H-IEAQQHLLQLTVWGIKQLQARILAVERY-OH; N-terminus and C-terminus assumed), for which the IC50 in [1] (1IIIB (subtype B, X4)) is greater than 3000 nM. Also, the “complex formation with C34” value at CHR-peptide C34 is given as “could not form a complex with C34”.

With “IEAQQHLLQLTVWGIKQLQARILAVERYGYIPEAPRDGQAYVRKDGEWVLLSTFL [N28Fd]”, the “remaining antiviral activity against HIV-1IIIB infection, % of original” value in the data set on HIV-1IIIB is 97%. The half-maximal inhibitory concentration (IC50) is 39 nM in [1] (read-out: IC50, inhibition of HIV-1IIIB replication (p24), MT-2 cells, day 4 post-infection); 46.4 ± 4.49 nM in data set [3]; 30.6 ± 6.07 nM in [4]; 29 ± 0.82 nM in [5]; 26.95 ± 0.02 nM in the data set on HIV-1NL4-3(36G) N42S; 21 nM in data set [6] (read-out: IC50, inhibition of HIV-1-induced cell-cell fusion, H9/HIV-1IIIB + MT-2 cells, 2 hrs). The 50% inhibitory concentration (IC50) in data set [8] (PHA-stimulated PBMCs, p24 on day 7, read-out: IC50 against infection by HIV-1 93IN101) was 1.27 nM; in [9] (TZM-bl cells, luciferase, read-out: IC50 against infection by HIV-1 Bal), 9.8 nM. Moreover, the “trimer stability in SDS-PAGE” value in [2] is “SDS-resistant but heat-sensitive trimer; also recorded: more stable than N36Fd under SDS conditions”. The “fold more potent than the free N-peptide in inhibiting cell-cell fusion” value in data set [6] (N36Fd vs N36, N28Fd vs N28) is greater than 138 fold. Moreover, the “α-helicity of the N36 or N28 portion in N36Fd or N28Fd” value in data set [7] came out at 30.9%. Also, the “residual amount, % of original, detected by ELISA” value in the data set with Proteinase K (3 hrs) stood at 84%.

Consider enfuvirtide, for which, in the data set with HIV-1IIIB, the “remaining antiviral activity against HIV-1IIIB infection, % of original” value is “completely lost its anti-HIV-1 activity”. For the same molecule, the IC50 is 1390 nM in [3]; 374 nM in data set [4]; 2300 nM in data set [5]; 30 nM in the data set on HIV-1NL4-3(36G) N42S; 1.75 nM in data set [8] (93IN101 (subtype C, R5, 2 h)); 3.4 nM in [9] (Bal (subtype B, R5)). In addition, the remaining at 3 h on Proteinase K (read-out: residual amount, % of original, detected by ELISA) is 17%. In addition, the “inhibition of HIV-1-mediated fusion” value with HIV-1-mediated fusion is reported as “low nanomolar level”.
